Results on eleven compounds are retold here after patent US12377086B2, “Therapeutic methods, combinations and kits” (priority 2021, dated 2025).

Read-outs that look alike come from different tables or passages of the source. Where only a bound is given, the exact number is not on record here.

Series [1] concerns VIM-2 expressing E. coli. The class given is cell-based, Escherichia coli. The note with it: single dose; for VIM-2 expressing E. coli Amox (+) relative percentage growth compared to untreated cells: with 50 μM amoxicillin. The procedure: (§1) The optical density of the cell cultured was monitored at 600 nm (OD600 nm). The cells were cultured on 0.8 g/100 ml nutrient agar plate at pH 7.0 and 37° C. […] An overnight culture of the bacterial strain was sub-cultured to 0.06 OD600 nm into the NB medium and was then seeded at max 200 μl into the wells of a 96 well microtiter plate. Samples were then incubated at 37° C. and shaken at 200 rpm for 18 h. The absorbance was measured on an ELIZA plate reader and analyzed with the Gen5™ software suite (version 1.08).
(§2) • The data are reported as relative percentage growth compared to untreated cells.

Series [2] has as its system E. coli. The class given is cell-based, Escherichia coli. The procedure:
as §1, §2

The target in series [3] is T1, VIM-2 (Pseudomonas aeruginosa, UniProt Q5U7L7). The note with it: after incubation with inhibitor and dialysis. The protocol:
VIM-2 was diluted to 6 μM with 50 mM HEPES, pH 7.5, containing 150 mM NaCl. The diluted protein solution was used to make several 5 mL aliquots. […] One aliquot contained one molar equivalent of inhibitor (6 μM), with respect to enzyme concentration, and the second aliquot contained two molar equivalents (12 μM). One aliquot contained no inhibitor. Each aliquot was then incubated for 4 h at 4° C. Following incubation, each aliquot was dialyzed versus 500 mL of 50 mM HEPES, pH 7.5, for 4 h at 4° C. The aliquots were analyzed using ICP-AES, as previously described REF. The emission wavelengths used were 213.856, 238.892, 259.940, 231.604, and 324.754 nm for Zn, Co, Fe, Ni, and Cu, respectively.
To further address the mode of action of 8-hydroxyquinolines, equilibrium dialysis experiments were conducted. […] EDTA, a well-known metal scavenger, inhibits all MBLs through a chelation mechanism (Bush, K.; Jacoby, G. A. Updated Functional Classification of beta-Lactamases. Antimicrobial Agents and Chemotherapy 2010, 54, 969-976).

Series [4] concerns the target T2, NDM-1 (Klebsiella pneumoniae, UniProt C7C422). Briefly: biochemical. The protocol: BL21 (DE3) E. coli cells containing the pET26b-ndm-1 plasmid were used to inoculate a 50 mL LB starter culture containing kanamycin (25 μg/mL). The culture was grown overnight at 37° C. The starter culture was then used to inoculate 4×1 L LB containing kanamycin (25 μg/mL). These flasks were incubated at 37° C. until culture reached an optical density of (OD600) of 0.6 to 0.8. The incubator was then set to 22° C. and the cultures were shaken for 30 min to allow them to cool. ZnCl2 ([…]) and IPTG (0.5 mM) were then added to the cultures and they were grown for 18 h at 22° C. The cells were then harvested using centrifugation (8000×g) for 10 min. The pellet was resuspended with 25 mL 50 mM HEPES, pH 7.5 containing 500 mM NaCl (Buffer B). Lysis was performed with three passes through a French Press. The lysate was centrifuged for 30 min (15,000×g) at 4° C. The supernatant was then dialyzed versus 2 L 50 mM HEPES, pH 7.5 (Buffer C) for 4 h. An FPLC was used to equilibrate a Q-Sepharose column using buffer C using a flowrate of 2.0 mL/min for 1.5 h. The lysate was then loaded onto the column and eluted with a linear NaCl gradient from 0-500 mM. Fractions containing NDM-1 were identified with SDS-PAGE. These fractions were pooled and concentrated to 2-3 mL in an Amicon ultracentrifugation concentrating unit with a YM-10 membrane. The resulting protein mixture was then loaded onto a Sephacryl S-200 gel filtration column run with 50 mM HEPES, pH 7.5 containing 150 mM NaCl (Buffer A). SDS-PAGE was used to identify fractions containing pure protein.
(§3) To identify potential MBL inhibitors, the relative change in the formation of hydrolyzed nitrocefin between treated and untreated MBL was determined as percentage inhibition. 5 nM of each BML was pre-incubated for 10 mins with 50 μM of each compound, followed by the addition of 10 μM nitrocefin.
(§4) Each MBL was incubated with 50 μM of each compound, followed by the addition of nitrocefin. The relative change in absorbance is reported as percentage inhibition.

For series [5], the target named is T1, VIM-2. The experiment in a line: biochemical. The protocol:
The pET24a-VIM-2 plasmid was transformed into competent BL21 (DE3) E. coli cells. The cells were plated onto an LB-agar plate with kanamycin (25 μg/mL) and incubated overnight at 37° C. A single colony was used to inoculate 50 mL of LB, containing 25 μg/mL kanamycin, and the culture was shaken overnight at 37° C. From the overnight culture, 10 mL were transferred to 4×IL LB medium containing 25 μg/mL kanamycin. The cultures were grown at 37° C. until an optical density (OD600 nm) of 0.6-0.8 was reached, at which point protein production was induced with IPTG (0.5 mM) and ZnCl2 (100 μM). The temperature was reduced to 20° C., and the cells were shaken for an additional 18 h. The cultures were harvested by centrifugation (8 Kxg) for 10 min at 4° C. The resulting pellets were re-suspended in 25 mL of 50 mM HEPES, pH 7.5, containing 500 mM NaCl (buffer B). The cells were lysed with three passes through a French Press. The lysate was centrifuged (15 Kxg) for 30 min at 4° C. The supernatant was dialyzed against 2 L of 50 mM HEPES, pH 7.5 (buffer A), for 4 h. Buffer A was used to equilibrate a 25 mL Q-Sepharose column using an FPLC. The sample was loaded onto the column, and proteins were eluted with a linear gradient 0-500 mM NaCl with buffer B. Fractions containing VIM-2, determined by SDS-PAGE, were pooled and concentrated to 2-3 mL in an Amicon ultraconcentrator equipped YM-10 membrane. […] Fractions containing pure VIM-2 were pooled, and metal analysis was performed.
The enzyme inhibition constant (Ki) was derived from initial-velocity measurements by nonlinear regression using competitive-inhibition enzyme kinetics using Graphpad Prism 6.

Series [6] deals with T1, VIM-2. Briefly: biochemical. The procedure: The pET24a-VIM-2 plasmid was transformed into competent BL21 (DE3) E. coli cells. The cells were plated onto an LB-agar plate with kanamycin (25 μg/mL) and incubated overnight at 37° C. A single colony was used to inoculate 50 mL of LB, containing 25 μg/mL kanamycin, and the culture was shaken overnight at 37° C. From the overnight culture, 10 mL were transferred to 4×IL LB medium containing 25 μg/mL kanamycin. The cultures were grown at 37° C. until an optical density (OD600 nm) of 0.6-0.8 was reached, at which point protein production was induced with IPTG (0.5 mM) and ZnCl2 (100 μM). The temperature was reduced to 20° C., and the cells were shaken for an additional 18 h. The cultures were harvested by centrifugation (8 Kxg) for 10 min at 4° C. The resulting pellets were re-suspended in 25 mL of 50 mM HEPES, pH 7.5, containing 500 mM NaCl (buffer B). The cells were lysed with three passes through a French Press. The lysate was centrifuged (15 Kxg) for 30 min at 4° C. The supernatant was dialyzed against 2 L of 50 mM HEPES, pH 7.5 (buffer A), for 4 h. Buffer A was used to equilibrate a 25 mL Q-Sepharose column using an FPLC. The sample was loaded onto the column, and proteins were eluted with a linear gradient 0-500 mM NaCl with buffer B. Fractions containing VIM-2, determined by SDS-PAGE, were pooled and concentrated to 2-3 mL in an Amicon ultraconcentrator equipped YM-10 membrane. Further purification was conducted with a Sephacryl S-200 gel filtration column using 50 mM HEPES, pH 7.5, containing 150 mM NaCl. Fractions containing pure VIM-2 were pooled, and metal analysis was performed.
as §3, §4
The source holds these as a separate data set.

For series [7] the following is noted: cited from earlier work.
A short description of series [8]: in vitro. The following applies: human.
Description: Human embryonic kidney cell line (HEK293) were grown in 100 mm cell culture petri dishes at 37° C. with 5% CO2 in Dulbecco's Modified Eagle's Medium high glucose medium containing 1% penicillin/streptomycin (Sigma-Aldrich, St. Louis, MO) and supplemented with 5% of fetal bovine serum (Thermo Fisher Scientific Gibco®). Cells under 10 passages and the 80% of monitored cell petri dish were used for experiment.
Cytotoxicity of tested compounds were estimated using the MTT method. Cell viability were measured by counting viable cells by using the 3 (4,5dimethylthiazol-2-yl)-2,5-diphenyltetrazolium bromide (MTT) (Sigma-Aldrich, St. Louis, MO) colorimetric dye-reduction assay. […] Following 24 h incubation and attachment, the cells were incubated for 72 h with different concentrations of inhibitors (0.01˜100 μM) in culture media without FBS. The Control cells were supplemented only with a medium without containing FBS. All samples in 96 well plate were incubated at 37° C. at an atmosphere of 5% CO2. […] The absorbance was measured using a micro-plate reader at wavelength 590 nm. The CC50 were obtained based on a comparison with untreated cells by fitting the data to a sigmoidal dose-response equation using Graphpad Prism 6.
Series [9] deals with T2, NDM-1.
Description: Nitrocefin (Cayman, CAS 41906-86-9) was used as the chromogenic substrate for all biochemical assays. […] The rate of product formation was monitored based on the λmax=486 nm absorbance taken at 10 s intervals for 30 mins. […] Velocity versus substrate concentration curves were fitted by nonlinear regression using Michaelis-Menten Enzyme kinetics with Graphpad Prism 6.
In series [10] the test system is VIM-2. The following applies: reported previously, cited from earlier work.
The mark [11] stands for this setting: 50 μM compound, 5 nM MBL, 10 μM nitrocefin, 30 mins, read-out: VIM-2 percentage inhibition.
Setting [12] is: 50 μM compound, 5 nM MBL, 10 μM nitrocefin, 30 mins.
[13] abbreviates: 50 μM compound, 5 nM MBL, 10 μM nitrocefin, 30 mins, read-out: NDM-1 percentage inhibition.

T2 sequence (C7C422 whole entry, looked up, species assumed): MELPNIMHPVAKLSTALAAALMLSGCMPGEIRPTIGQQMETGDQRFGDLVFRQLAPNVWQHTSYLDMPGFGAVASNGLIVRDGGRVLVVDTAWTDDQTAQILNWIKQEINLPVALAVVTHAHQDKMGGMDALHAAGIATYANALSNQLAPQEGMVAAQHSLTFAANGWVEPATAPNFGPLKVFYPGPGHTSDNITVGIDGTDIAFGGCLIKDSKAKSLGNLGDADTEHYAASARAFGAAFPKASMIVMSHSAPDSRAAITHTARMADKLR

In the case of `CC1(C)S[C@@H]2[C@H](NC(=O)[C@H](N)c3ccc(O)cc3)C(=O)N2[C@H]1C(=O)O` [Amox, amoxicillin], the “VIM-2 expressing E. coli Amox (+) relative percentage growth compared to untreated cells” value in [1] stood at 77%. In series [2], the “E. coli Amox (+) relative percentage growth compared to untreated cells” value stood at 3.6% and the “growth inhibition of wild type E. coli” value is “over 96%”.
Take `O=C(O)[C@H]1/C(=C/CO)O[C@@H]2CC(=O)N21` [Clav, Clavulanate]: the “VIM-2 expressing E. coli Amox (+) relative percentage growth compared to untreated cells” value in series [1] came to 57%. Moreover, the “VIM-2 expressing E. coli Amox (−) relative percentage growth compared to untreated cells” value in series [1] (without amoxicillin) came out at 93%. The “E. coli Amox (+) relative percentage growth compared to untreated cells” value in series [2] (wild type E. coli, single dose, with 50 μM amoxicillin) is given as 2.9%. Besides, the “E. coli Amox (−) relative percentage growth compared to untreated cells” value in series [2] (wild type E. coli, single dose, without amoxicillin) came out at 86%.
In general, inhibition refers to the share of the control response that was lost under treatment. As for `C[C@H](CS)C(=O)N1CCC[C@H]1C(=O)O` [Compound 1, L-captopril, reference compound], the “metal content of VIM-2 / removal of Zn(II) from the active site” value in [3] is recorded as “relatively unaffected”. Besides, the inhibition at 50 µM in series [4] (read-out: NDM-1 percentage inhibition, 50 μM compound, 5 nM MBL, 10 μM nitrocefin, 30 mins) worked out at 93%.
As a reminder, the IC50 is the point on the concentration scale where inhibition reaches its midpoint. As usually defined, the Ki is the equilibrium dissociation constant of an inhibitor or competing ligand from its target. As for `O=C(O)/C(S)=C\c1cccnc1` [Compound 5], in [5], the IC50 came to 24 µM. In [5], the Ki was found to be 4.5 µM. The inhibition at 50 µM in series [6] (setting [11]) and in series [4] (setting [13]) was 40% throughout. In addition, the NDM-1 percentage inhibition in series [4] (setting [12]) was found to be 39%.
In series [5], `O=C(c1ccc(O)cc1)c1ccc(O)c(O)c1O` [Compound 13] gave an IC50 of 81 µM. In series [5], this compound gave a Ki of 8.8 µM. This compound also came in with a VIM-2 percentage inhibition in [6] (setting [12]) of 48%. Moreover, the inhibition at 50 µM in series [6] (setting [11]) and in [4] (setting [13]) was 40% each time. In [4] (setting [12]), this compound registered an NDM-1 percentage inhibition of 36%.
In series [5], `O=C1[C@@H](c2ccccc2)SCN1O` [Compound 17] returned a half-maximal inhibitory concentration (IC50) of 41 µM and a Ki of 5.3 µM. The compound also returned a VIM-2 percentage inhibition in series [6] (setting [12]) of 33%. Moreover, the inhibition at 50 µM in [6] (setting [11]) was found to be 40%. In addition, in series [4] (setting [13]), the inhibition at 50 µM came out at 40%.
Turning to `Oc1cccc2cccnc12` [Compound 31, 8-Hydroxyquinoline], in [5], the IC50 amounted to 3.6 µM and affinity was put at a Ki of 0.67 µM. Also, in series [3], the “metal content of VIM-2 / removal of Zn(II) from the active site” value is on record as “do not inhibit VIM-2 by removal of Zn(II)”. The compound also returned a VIM-2 percentage inhibition in series [6] (setting [12]) of 98%. In addition, the inhibition at 50 µM in series [6] (read-out: VIM-2 percentage inhibition, 50 μM compound, 5 nM MBL, 10 μM nitrocefin, 30 mins) is > 96%. Moreover, the “pKa, hydroxyl group” value in series [7] (hydroxyl group) is reported as 9.89. For the same compound, the “pKa, nitrogen atom” value in [7] (nitrogen atom) is listed as 5.13.
As for `Cc1ccc2c(Cl)cc(Cl)c(O)c2n1` [Compound 50], the IC50 in series [5] (5 nM MBL, 10 μM nitrocefin, read-out: VIM-2 IC50) is 4.8 µM. Moreover, the Ki in [5] (nitrocefin substrate, competitive-inhibition fit, read-out: VIM-2 Ki) was found to be 0.96 µM. The VIM-2 percentage inhibition in [6] (setting [12]) came to 95%.
In [5], `O=C(O)c1cccc(=S)n1O` [Compound 51, 1-hydroxypyridine-2 (1H)-thione-6-carboxylic acid, reference compound] displayed an IC50 of 0.31 µM and a Ki of 0.02 µM. In addition, in series [8], the CC50 at 72 h came to 92 µM.
For the compound `O=C(O)CN(CCN(CC(=O)O)CC(=O)O)CC(=O)O` [EDTA], in series [3], the “Zn(II) removed from VIM-2” value is given as 1 equivalent of Zn(II).
A word on the Km: it is the substrate concentration at which the rate is half of its maximum. In the case of `O=C(Cc1cccs1)N[C@@H]1C(=O)N2C(C(=O)O)=C(/C=C/c3ccc([N+](=O)[O-])cc3[N+](=O)[O-])CS[C@H]12` [nitrocefin, Nitrocefin], the “kcat, hydrolysis of nitrocefin by NDM-1” value in series [9] was 25 s⁻¹. The Km in [9] (read-out: Km, hydrolysis of nitrocefin by NDM-1) was 2.2 µM; in series [10] (read-out: Km, hydrolysis of nitrocefin by VIM-2), 23 µM. In series [10], the “kcat, hydrolysis of nitrocefin by VIM-2” value is 212 s⁻¹.
